Experimental findings from the supplement of paper PMC10307832 are described below.

Assay in all cases: relative viability (nuclei count vs DMSO), 5 days (fraction); higher = more cells survive
Compound in test [1]: CC1=CC=C(C=C1)C(=O)CN2C3=C(CCCC3)SC2=N [Pifithrin_alpha] + COc1cc2c(Oc3ccc(NC(=O)C4(C(=O)Nc5ccc(F)cc5)CC4)cc3F)ccnc2cc1OCCCN1CCOCC1 [Foretinib] (partner 0.25 µM)
An outline of the steps:
(§1)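 One day after seeding in 1536-well plates, lung cancer cell lines were dosed by pin tool. Dosing was either single-drug or a fixed anchor-drug dose plus five library-drug doses (not always all listed) in √10 steps. After 5 days, nuclei were stained in one fix-and-stain step and counted on 4× images, and relative viability is the nuclei count of treated wells over that of vehicle wells, given as the median of duplicate plates.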

Compound in test [2]: CC1=CC=C(C=C1)C(=O)CN2C3=C(CCCC3)SC2=N [Pifithrin_alpha] + CS(=O)(=O)CCNCc1ccc(-c2ccc3ncnc(Nc4ccc(OCc5cccc(F)c5)c(Cl)c4)c3c2)o1 [Lapatinib] (partner 2 µM)
The method in brief:
as §1

Compound in test [3]: CNC(=O)c1ccccc1Sc1ccc2c(/C=C/c3ccccn3)n[nH]c2c1 [Axitinib] + Cc1cc(Nc2cc(N3CCN(C)CC3)nc(Sc3ccc(NC(=O)C4CC4)cc3)n2)n[nH]1 [Tozasertib] (partner 0.1 µM)
The method in brief:
as §1

Compound in test [4]: CNC(=O)c1ccccc1Sc1ccc2c(/C=C/c3ccccn3)n[nH]c2c1 [Axitinib] + Nc1ncn([C@H]2C[C@H](O)[C@@H](CO)O2)c(=O)n1 [Decitabine] (partner 2 µM)
An outline of the steps:
as §1

PC-3 [JPC-3]: the relative viability in test [1] (first compound 1 µM) came out at 1.05; in test [1] (first compound 3.162 µM) it was 0.991; in test [1] (first compound 10 µM) it was 0.927; in test [1] (first compound 31.62 µM), 0.833; in test [1] (first compound 100 µM), 0.931; in test [2] (first compound 1 µM), 0.392. In addition, the relative viability was 0.421 in test [2] (first compound 3.162 µM); 0.401 in test [2] (first compound 10 µM); 0.414 in test [2] (first compound 31.62 µM); 0.326 in test [2] (first compound 100 µM); 0.96 in test [3] (first compound 0.005 µM); 0.899 in test [3] (first compound 0.01581 µM). Moreover, the relative viability turned out to be 1 in test [3] (first compound 0.05 µM); 0.855 in test [3] (first compound 0.1581 µM); 1.03 in test [3] (first compound 0.5 µM); 0.865 in test [4] (first compound 0.005 µM); 0.826 in test [4] (first compound 0.05 µM); 0.889 in test [4] (first compound 0.1581 µM). Further, the relative viability in test [4] (first compound 0.5 µM) stood at 0.824.
Regarding PC-14, the relative viability was 1.09 in test [1] (first compound 1 µM); 0.998 in test [1] (first compound 3.162 µM); 1.03 in test [1] (first compound 10 µM); 0.791 in test [1] (first compound 31.62 µM); 0.94 in test [1] (first compound 100 µM); 0.337 in test [2] (first compound 1 µM). The relative viability in test [2] (first compound 3.162 µM) is 0.32; in test [2] (first compound 10 µM), 0.265; in test [2] (first compound 31.62 µM), 0.271; in test [2] (first compound 100 µM), 0.15; in test [3] (first compound 0.005 µM), 0.6; in test [3] (first compound 0.05 µM), 0.553. Also, the relative viability was found to be 0.558 in test [3] (first compound 0.1581 µM); 0.758 in test [3] (first compound 0.5 µM); 0.239 in test [4] (first compound 0.005 µM); 0.219 in test [4] (first compound 0.01581 µM); 0.231 in test [4] (first compound 0.05 µM); 0.203 in test [4] (first compound 0.1581 µM). The relative viability in test [4] (first compound 0.5 µM) turned out to be 0.194.
Turning to RERF-LC-KJ, the relative viability in test [1] (first compound 1 µM) was 0.886; in test [1] (first compound 3.162 µM), 0.829; in test [1] (first compound 10 µM) it was 0.792; in test [1] (first compound 31.62 µM) it was 0.813; in test [1] (first compound 100 µM), 0.786; in test [2] (first compound 1 µM), 0.819. Further, the relative viability is 0.865 in test [2] (first compound 3.162 µM); 0.836 in test [2] (first compound 10 µM); 0.747 in test [2] (first compound 31.62 µM); 0.768 in test [2] (first compound 100 µM); 0.458 in test [3] (first compound 0.005 µM); 0.485 in test [3] (first compound 0.01581 µM). Also, the relative viability in test [3] (first compound 0.05 µM) is 0.535; in test [3] (first compound 0.1581 µM), 0.573; in test [3] (first compound 0.5 µM), 0.52; in test [4] (first compound 0.005 µM), 0.663; in test [4] (first compound 0.01581 µM) it was 0.694; in test [4] (first compound 0.05 µM), 0.67. In addition, the relative viability in test [4] (first compound 0.1581 µM) was determined as 0.596; in test [4] (first compound 0.5 µM), 0.738.
Consider SK-LU-1, for which the relative viability in test [1] (first compound 1 µM) was found to be 0.884; in test [1] (first compound 3.162 µM), 0.95; in test [1] (first compound 10 µM), 0.84; in test [1] (first compound 100 µM) it was 0.858; in test [2] (first compound 1 µM), 0.937; in test [2] (first compound 3.162 µM), 0.911. Moreover, the relative viability in test [2] (first compound 10 µM) was 0.948; in test [2] (first compound 31.62 µM), 0.599; in test [2] (first compound 100 µM), 0.935; in test [3] (first compound 0.005 µM) it was 0.41; in test [3] (first compound 0.01581 µM), 0.345; in test [3] (first compound 0.05 µM), 0.333. The relative viability in test [3] (first compound 0.1581 µM) stood at 0.375; in test [3] (first compound 0.5 µM), 0.47; in test [4] (first compound 0.005 µM) it was 0.64; in test [4] (first compound 0.01581 µM) it was 0.726; in test [4] (first compound 0.05 µM) it was 0.618; in test [4] (first compound 0.1581 µM) it was 0.582. Besides, in test [4] (first compound 0.5 µM), the relative viability was 0.598.
SK-MES-1: the relative viability in test [1] (first compound 1 µM) turned out to be 0.763; in test [1] (first compound 3.162 µM), 0.817; in test [1] (first compound 10 µM), 0.857; in test [1] (first compound 31.62 µM), 0.588; in test [1] (first compound 100 µM), 0.604; in test [2] (first compound 1 µM) it was 0.461. The relative viability in test [2] (first compound 3.162 µM) was found to be 0.447; in test [2] (first compound 10 µM), 0.458; in test [2] (first compound 31.62 µM), 0.439; in test [2] (first compound 100 µM), 0.447; in test [3] (first compound 0.005 µM), 0.996; in test [3] (first compound 0.01581 µM) it was 0.904. Further, the relative viability in test [3] (first compound 0.05 µM) was determined as 0.818; in test [3] (first compound 0.1581 µM) it was 0.947; in test [3] (first compound 0.5 µM) it was 1.07; in test [4] (first compound 0.005 µM) it was 0.324; in test [4] (first compound 0.01581 µM), 0.361; in test [4] (first compound 0.05 µM), 0.364. In addition, the relative viability in test [4] (first compound 0.1581 µM) came to 0.348; in test [4] (first compound 0.5 µM) it was 0.449.
Turning to SW 1573, the relative viability in test [1] (first compound 1 µM) stood at 1.01; in test [1] (first compound 3.162 µM), 0.891; in test [1] (first compound 10 µM), 0.835; in test [1] (first compound 31.62 µM), 0.753; in test [1] (first compound 100 µM), 0.709; in test [2] (first compound 1 µM) it was 1.1. The relative viability in test [2] (first compound 3.162 µM) turned out to be 1.14; in test [2] (first compound 10 µM) it was 1.02; in test [2] (first compound 31.62 µM) it was 0.798; in test [2] (first compound 100 µM) it was 0.81; in test [3] (first compound 0.005 µM), 0.169; in test [3] (first compound 0.01581 µM) it was 0.214. The relative viability in test [3] (first compound 0.05 µM) turned out to be 0.166; in test [3] (first compound 0.1581 µM), 0.178; in test [3] (first compound 0.5 µM), 0.249; in test [4] (first compound 0.005 µM) it was 0.546; in test [4] (first compound 0.01581 µM), 0.544; in test [4] (first compound 0.05 µM), 0.579. For the same cell line, the figures for the relative viability in test [4] (first compound 0.1581 µM) and in test [4] (first compound 0.5 µM) were 0.445 and 0.617, respectively.
With UMC-11, the relative viability is 0.965 in test [1] (first compound 1 µM); 1.13 in test [1] (first compound 3.162 µM); 1.19 in test [1] (first compound 10 µM); 1.04 in test [1] (first compound 31.62 µM); 1.43 in test [1] (first compound 100 µM); 1.03 in test [2] (first compound 1 µM). Also, the relative viability in test [2] (first compound 3.162 µM) stood at 1.06; in test [2] (first compound 10 µM), 0.933; in test [2] (first compound 31.62 µM) it was 0.764; in test [2] (first compound 100 µM), 1.06; in test [3] (first compound 0.005 µM), 0.211; in test [3] (first compound 0.01581 µM), 0.195. Also, the relative viability in test [3] (first compound 0.05 µM) amounted to 0.2; in test [3] (first compound 0.1581 µM), 0.202; in test [3] (first compound 0.5 µM), 0.206; in test [4] (first compound 0.005 µM), 0.597; in test [4] (first compound 0.01581 µM), 0.577; in test [4] (first compound 0.05 µM), 0.577. Moreover, the relative viability came to 0.615 in test [4] (first compound 0.1581 µM) and 0.553 in test [4] (first compound 0.5 µM).
